The test system of test [1] is TNFα production in LPS-stimulated human monocytes. Briefly: Cot Monocyte TNFα Cell Based Assay. The following applies: Homo sapiens, Monocyte, read-out: EC50 TNF. An outline of the steps: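 Human monocytes (5,000 cells/well) pretreated with compound for 1 hour at 37° C (0.5% DMSO), then stimulated with 50 pg/ml LPS for 4 hours. Total TNFα measured by TR-FRET after overnight antibody incubation at room temp, expressed as percent of control between unstimulated and stimulated cells.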

For test [2], the target named is T1, human Cot catalytic domain (30-397 amino acids) (Homo sapiens, UniProt P41279).
T1 construct: Purified recombinant human Cot catalytic domain (30-397 amino acids) was purchased from Cama Biosciences; purchased Cama Biosciences (so in the source)
T1 sequence (P41279 30-397): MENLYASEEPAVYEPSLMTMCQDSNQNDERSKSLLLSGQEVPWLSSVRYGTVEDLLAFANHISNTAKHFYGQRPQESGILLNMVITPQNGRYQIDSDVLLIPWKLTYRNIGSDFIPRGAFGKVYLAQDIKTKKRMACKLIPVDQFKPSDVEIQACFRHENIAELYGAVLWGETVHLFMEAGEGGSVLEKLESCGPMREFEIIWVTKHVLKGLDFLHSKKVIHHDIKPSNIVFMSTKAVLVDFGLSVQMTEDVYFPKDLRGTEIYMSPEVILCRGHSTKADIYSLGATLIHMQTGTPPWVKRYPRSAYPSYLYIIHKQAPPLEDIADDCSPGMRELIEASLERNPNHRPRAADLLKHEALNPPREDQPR
Briefly: High Throughput Cot Biochemical Assay (KinEASE TR-FRET). The following applies: read-out: IC50 HTRF. The procedure, abridged: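 Recombinant human Cot catalytic domain (aa 30-397), 5 nM, with 1 μM STK3 peptide and 400 μM ATP in MOPS pH 7.0 buffer with MgOAc, DTT, BSA, NP-40, glycerol, 0.1% DMSO. Phosphorylated XL665-peptide detected by Eu-[…] antibody TR-FRET.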

Setting [3] is: TNFα in LPS-stimulated human monocytes.
The mark [4] stands for this setting: Cot biochemical HTRF (KinEASE TR-FRET) assay.
[5] abbreviates: LPS-stimulated human monocytes, TNFα TR-FRET.
Where [6] appears, read: Cot KinEASE TR-FRET, 400 μM ATP.
Where [7] appears, read: Cot KinEASE TR-FRET (HTRF) biochemical assay, 400 μM ATP.

Data on 21 compounds can be found in patent US10316017B2, “COT modulators and methods of use thereof” (Gilead Sciences, Inc., priority 2015, dated 2019).

Usually EC50 stands for the concentration needed to bring the measured effect to its halfway point. Usually IC50 stands for the midpoint of a concentration-inhibition curve.

Like-named read-outs stand apart in the source and are kept apart here.

In the case of `CCOc1ccc(Nc2c(C#N)cnc3c(Cl)cc(N[C@@H](c4ccc(Cl)cc4)c4c[nH]nn4)cc23)cc1Cl` [Example 649, (S)-8-chloro-4-((3-chloro-4-ethoxyphenyl)amino)-6-(((4-chlorophenyl)(1H-1,2,3-triazol-4-yl)methyl)amino)quinoline-3-carbonitrile], the EC50 in test [1] (setting [3]) turned out to be 2.74 µM. The IC50 in test [2] (setting [4]) is 1.46 µM.
`N#Cc1cnc2c(Cl)cc(N[C@@H](c3ccccc3)c3c[nH]nn3)cc2c1Nc1cccc(Cl)c1F` [Example 613, (S)-8-chloro-4-((3-chloro-2-fluorophenyl)amino)-6-((phenyl(1H-1,2,3-triazol-4-yl)methyl)amino)quinoline-3-carbonitrile]: in test [1] (setting [3]), the EC50 came out at 0.708 µM. Also, the IC50 in test [2] (setting [4]) was 0.041 µM.
With `CC(C)(C)N1CCC(n2cc([C@@H](Nc3cc(F)c4ncc(C#N)c(Nc5ccc(F)c(Cl)c5)c4c3)c3ccc(Cl)cc3)nn2)CC1` [Example 709, (S)-6-(((1-(1-(tert-butyl)piperidin-4-yl)-1H-1,2,3-triazol-4-yl)(4-chlorophenyl)methyl)amino)-4-((3-chloro-4-fluorophenyl)amino)-8-fluoroquinoline-3-carbonitrile], the EC50 in test [1] (setting [3]) was 0.307 µM. The concentration for half-maximal inhibition (IC50) in test [2] (setting [4]) turned out to be 0.018 µM.
The matching figures for `CC[C@@H](Nc1c(C#N)cnc2c(Cl)cc(N[C@H](c3cn(C4CC4)nn3)c3ccccc3F)cc12)c1ccccc1` [Example 429, 8-chloro-6-(((S)-(1-cyclopropyl-1H-1,2,3-triazol-4-yl)(2-fluorophenyl)methyl)amino)-4-(((R)-1-phenylpropyl)amino)quinoline-3-carbonitrile]: 0.257 µM and 0.009 µM.
In the case of `Cc1c(C#N)cccc1[C@H](Nc1cc(Cl)c2ncc(C#N)c(NCC(C)(C)C)c2c1)c1cn(C2(C(N)=O)CC2)nn1` [Example 1008, (S)-1-(4-(((8-chloro-3-cyano-4-(neopentylamino)quinolin-6-yl)amino)(3-cyano-2-methylphenyl)methyl)-1H-1,2,3-triazol-1-yl)cyclopropane-1-carboxamide], the EC50 in test [1] (setting [5]) stood at 0.123 µM. Besides, in test [2] (setting [6]), the IC50 stood at 0.001 µM.
In the case of `CS(=O)(=O)c1cccc([C@H](Nc2cc(Cl)c3ncc(C#N)c(Nc4ccc(Cl)c(Cl)c4F)c3c2)c2c[nH]nn2)c1` [Example 462, (S)-8-chloro-4-((3,4-dichloro-2-fluorophenyl)amino)-6-(((3-(methylsulfonyl)phenyl) (1H-1,2,3-triazol-4-yl)methyl)amino)quinoline-3-carbonitrile], in test [1] (setting [3]), the EC50 was 0.787 µM. Also, the IC50 in test [2] (setting [4]) was 0.017 µM.
Take `Cc1c(-c2ccnnc2)cccc1[C@H](Nc1cc(Cl)c2ncc(C#N)c(NCC(C)(C)C)c2c1)c1cn(C2(C(F)(F)F)CC2)nn1` [Example 1121, (S)-8-chloro-6-(((2-methyl-3 (pyridazin-4-yl)phenyl)(1-(1-(trifluoromethyl)cyclopropyl)-1H-1,2,3-triazol-4-yl)methyl)amino)-4-(neopentylamino)quinoline-3-carbonitrile]: the EC50 in test [1] (setting [5]) was 0.059 µM. Moreover, the IC50 in test [2] (setting [6]) was 0.002 µM.
For `[2H][C@](Nc1cc(Cl)c2ncc(C#N)c(N[C@H](CCO)c3ccccc3)c2c1)(c1cccc(C#N)c1)c1cn(C2CC2)nn1` [Example 259, 8-chloro-6-(((3-cyanophenyl)(1-cyclopropyl-1H-1,2,3-triazol-4-yl)methyl-d)amino)-4-(((R)-3-hydroxy-1-phenylpropyl)amino)quinoline-3-carbonitrile], the EC50 in test [1] (setting [3]) was determined as 0.087 µM. In addition, the IC50 in test [2] (setting [7]) came to 0.005 µM.
In the case of `[2H][C@@](Nc1cc(Cl)c2ncc(C#N)c(NCC(C)(C)C)c2c1)(c1cn(C2(C)CC2)nn1)c1c(F)cccc1Cl` [Example 1047, (S)-8-chloro-6-(((2-chloro-6-fluorophenyl)(1-(1-methylcyclopropyl)-1H-1,2,3-triazol-4-yl)methyl-d)amino)-4-(neopentylamino)quinoline-3-carbonitrile], in test [1] (setting [5]), the EC50 was not below 1 µM. In addition, the IC50 in test [2] (setting [6]) was 0.101 µM.
On to `CC[C@@H](Nc1c(C#N)cnc2c(Cl)cc(N[C@H](c3ccccc3)c3c[nH]nn3)cc12)c1ccccc1` [Example 626, 8-chloro-6-(((R)-phenyl(1H-1,2,3-triazol-4-yl)methyl)amino)-4-(((R)-1-phenylpropyl)amino) quinoline-3-carbonitrile], for which, in test [1] (setting [3]), the EC50 is more than 50 µM. In addition, the IC50 in test [2] (setting [4]) stood at 0.784 µM.
The matching figures for `CC1(C)CC(n2cc([C@@H](Nc3cc(Cl)c4ncc(C#N)c(Nc5ccc(F)c(Cl)c5)c4c3)c3ccccc3)nn2)CCN1` (stereo partly drawn) [Example 790, 8-chloro-4-((3-chloro-4-fluorophenyl)amino)-6-(((1S)-(1-(2,2-dimethylpiperidin-4-yl)-1H-1,2,3-triazo1-4-yl)(phenyl)methyl)amino) quinoline-3-carbonitrile]: 0.305 µM and 0.004 µM.
The corresponding values for `N#Cc1ccc([C@H](Nc2cc(Cl)c3ncc(C#N)c(Nc4cnc(F)c(F)c4)c3c2)c2c[nH]nn2)cc1` [Example 423, (S)-8-chloro-6-(((4-cyanophenyl)(1H-1,2,3-triazol-4-yl)methyl)amino)-4-((5,6-difluoropyridin-3-yl)amino)quinoline-3-carbonitrile] are 1.26 µM and 0.017 µM.
Regarding `C[C@H](Nc1c(C#N)cnc2c(Cl)cc(N[C@@H](c3ccc(Cl)cc3)c3cn(C4CCN(C(C)(C)C)CC4)nn3)cc12)c1ccccc1` [Example 705, 6-(((S)-(1-(1-(tert-butyl)piperidin-4-yl)-1H-1,2,3-triazol-4-yl)(4-chlorophenyl)methyl)amino)-8-chloro-4-(((S)-1-phenylethyl)amino)quinoline-3-carbonitrile], in test [1] (setting [3]), the EC50 came out at 12.2 µM. For the same compound, the IC50 in test [2] (setting [4]) is 2.83 µM.
Turning to `Cc1c([C@H](Nc2cc(C#N)c3ncc(C#N)c(NCC(C)(C)C)c3c2)c2cn(C3(C(F)(F)F)CC3)nn2)cccc1-n1cnnn1` [Example 1081, (S)-6-(((2-methyl-3-(1H-tetrazol-1-yl)phenyl)(1-(1-(trifluoromethyl)cyclopropyl)-1H-1,2,3-triazol-4-yl)methyl)amino)-4-(neopentylamino)quinoline-3,8-dicarbonitrile], the EC50 in test [1] (setting [5]) is 0.219 µM. The IC50 in test [2] (setting [6]) was determined as 0.003 µM.
Regarding `[2H][C@](Nc1cc(Cl)c2ncc(C#N)c(NC3(C)CC3)c2c1)(c1ccc(F)cc1)c1cn(C2CC2)nn1` [Example 241, (S)-8-chloro-6-(((1-cyclopropyl-1H-1,2,3-triazol-4-yl)(4-fluorophenyl)methyl-d)amino)-4-((1-methylcyclopropyl)amino) quinoline-3-carbonitrile], the EC50 in test [1] (setting [3]) amounted to 5.08 µM. In addition, the IC50 in test [2] (setting [7]) amounted to 0.951 µM.
Turning to `N#Cc1ccccc1[C@H](Nc1cc(Cl)c2ncc(C#N)c(Nc3cnc(F)c(F)c3)c2c1)c1c[nH]nn1` [Example 328, (S)-8-chloro-6-(((2-cyanophenyl)(1H-1,2,3-triazol-4-yl)methyl)amino)-4-((5,6-difluoropyridin-3-yl)amino)quinoline-3-carbonitrile], the EC50 in test [1] (setting [3]) is 1.24 µM. Also, the IC50 in test [2] (setting [7]) came to 0.024 µM.
Consider `N#Cc1cnc2c(Cl)cc(N[C@@H](c3ccc(F)cc3)c3c[nH]nn3)cc2c1N[C@@H](CCO)c1ccccc1` [Example 432, 8-chloro-6-(((S)-(4-fluorophenyl)(1H-1,2,3-triazol-4-yl)methyl)amino)-4-(((S)-3-hydroxy-1-phenylpropyl)amino)quinoline-3-carbonitrile], for which the EC50 in test [1] (setting [3]) is 3.93 µM. Also, in test [2] (setting [4]), the IC50 is 0.624 µM.
The matching figures for `CC[C@@H](Nc1c(C#N)cnc2c(Cl)cc(N[C@@H](c3ccc(Cl)cc3)c3cn(C4CCN(C(C)(C)C)CC4)nn3)cc12)c1ccccc1` [Example 677, 6-(((S)-(1-(1-(tert-butyl)piperidin-4-yl)-1H-1,2,3-triazol-4-yl)(4-chlorophenyl)methyl)amino)-8-chloro-4-(((R)-1-phenylpropyl)amino)quinoline-3-carbonitrile]: 0.809 µM and 0.01 µM.
The matching figures for `C[C@@H](Nc1c(C#N)cnc2c(Cl)cc(N[C@@H](c3ccccc3)c3cn(C4CCN(C(C)(C)C)CC4)nn3)cc12)C1CCCCC1` [Example 523, 6-(((S)-(1-(1-(tert-butyl)piperidin-4-yl)-1H-1,2,3-triazol-4-yl)(phenyl)methyl)amino)-8-chloro-4-(((R)-1-cyclohexylethyl)amino) quinoline-3-carbonitrile]: 4.88 µM and 0.3 µM.
Regarding `CC(C)(C)CNc1c(C#N)cnc2c(C#N)cc(N[C@@H](c3ccc(F)cc3)c3cn(C4(c5cnccn5)CC4)nn3)cc12` [Example 984, (S)-6-(((4-fluorophenyl)(1-(1-(pyrazin-2-yl)cyclopropyl)-1H-1,2,3-triazol-4-yl)methyl)amino)-4-(neopentylamino)quinoline-3,8-dicarbonitrile], the EC50 in test [1] (setting [5]) worked out at 0.093 µM. The IC50 in test [2] (setting [6]) stood at 0.125 µM.
With `N#Cc1cnc2c(Cl)cc(N[C@@H](c3ccc(Cl)cc3)c3cn(C4COC4)nn3)cc2c1Nc1cnc(F)c(F)c1` [Example 494, (S)-8-chloro-6-(((4-chlorophenyl)(1-(oxetan-3-yl)-1H-1,2,3-triazol-4-yl)methyl)amino)-4-((5,6-difluoropyridin-3-yl)amino)quinoline-3-carbonitrile], in test [1] (setting [3]), the EC50 stood at 0.585 µM. In test [2] (setting [4]), the IC50 is 0.047 µM.
